Source: patent US10442835B2, “Water-soluble rapamycin derivatives” (Zhejiang Hisun Pharmaceutical Co., Ltd., priority 2016, dated 2019)
Where “and” joins values, the source holds several entries; their conditions need not be identical. Identical values can stand only once.

Legend:
[1] = Body weight of DU145 tumor nude mice; settings: for Body Weight, mean value / Decrease rate (body weight) / Decrease in body weight: 3×/w, 4 w;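 on all read-outs here: dosing started once xenografts reached 150-200 mm^3, with mice randomized into three groups, loss of body weight served as an indirect sign of drug toxicity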
Experimental: DU145 (the 3rd generation) tumors in the rapid proliferation stage inoculated in the axilla of nude mice were cut into tumor lumps with a size of 1 mm*1 mm*1 mm and then were inoculated subcutaneously to the right limb of nude mice using a trocar under a sterile condition. When the tumors grow to 150-200 mm^3, the mice were randomly divided into three groups and then administrated with the compounds for 4 weeks. The major diameter (a) and the minor diameter (b) of the tumors were measured 2 or 3 times a week. The tumor volume (TV) was calculated with the following equation: TV=½×a×b^2. Tumors were stripped and weighted at Day 28 and the tumor inhibition rate was calculated using the following equation: (tumor weight of control−tumor weight of experimental group)/tumor weight of control×100%.
The nude mice were divided into 3 groups with 4 mice per group when the tumors averagely grew to about 185-200 mm^3, depending on the growth regularity of the tumor and the dosage regimen.
G1: positive drug group: Everolimus (5 mg/kg, qw, 4 w, 3×/w); administration route: intragastrical administration;

[2] = system: human lung cancer cell NCI-H460; experiment: In vivo inhibitory activity against NCI-H460 tumor in nude mice; settings: everolimus 5 mg/kg, compound I-1 6.8 mg/kg, qw 4×
[3] = Day 3, G2 compound I-1 3.4 mg/kg tail vein injection
[4] = Day 3, G3 compound I-1 1.7 mg/kg tail vein injection
[5] = Day 7, G2 compound I-1 3.4 mg/kg tail vein injection
[6] = Day 7, G3 compound I-1 1.7 mg/kg tail vein injection
[7] = Day 10, G2 compound I-1 3.4 mg/kg tail vein injection
[8] = Day 10, G3 compound I-1 1.7 mg/kg tail vein injection
[9] = Day 14, G2 compound I-1 3.4 mg/kg tail vein injection
[10] = Day 14, G3 compound I-1 1.7 mg/kg tail vein injection
[11] = Day 17, G2 compound I-1 3.4 mg/kg tail vein injection
[12] = Day 17, G3 compound I-1 1.7 mg/kg tail vein injection
[13] = Day 21, G2 compound I-1 3.4 mg/kg tail vein injection
[14] = Day 21, G3 compound I-1 1.7 mg/kg tail vein injection
[15] = Day 24, G2 compound I-1 3.4 mg/kg tail vein injection
[16] = Day 24, G3 compound I-1 1.7 mg/kg tail vein injection
[17] = Day 28, G2 compound I-1 3.4 mg/kg tail vein injection
[18] = Day 28, G3 compound I-1 1.7 mg/kg tail vein injection

CO[C@H]1C[C@@H]2CC[C@@H](C)[C@@](O)(O2)C(=O)C(=O)N2CCCC[C@H]2C(=O)OC([C@H](C)C[C@@H]2CC[C@@H](OCCOC(=O)CSC[C@H](NC(=O)CC[C@H](N)C(=O)O)C(=O)NCC(=O)O)[C@H](OC)C2)CC(=O)[C@H](C)/C=C(\C)[C@@H](O)[C@@H](OC)C(=O)[C@H](C)C[C@@H](C)\C=C/C=C/C=C/1C (stereo partly shown) [Compound I-1]
Body Weight, mean value ([1]; Day 0, G3 compound I-1 1.7 mg/kg tail vein injection): 26.86 g
Body Weight, mean value [1, 3]: 25.92 g
Decrease rate (body weight) [1, 3]: −2.45%
Body Weight, mean value [1, 4]: 27.32 g
Decrease rate (body weight) [1, 4]: −1.70%
Decrease in body weight ([1]; Day 3 vs Day 0, G2 compound I-1 3.4 mg/kg tail vein injection): -0.62 g
Decrease in body weight ([1]; Day 3 vs Day 0, G3 compound I-1 1.7 mg/kg tail vein injection): -0.46 g
Body Weight, mean value [1, 5]: 26.13 g
Decrease rate (body weight) [1, 5]: −3.29%
Body Weight, mean value [1, 6]: 27.17 g
Decrease rate (body weight) [1, 6]: −1.16%
Decrease in body weight ([1]; Day 7 vs Day 0, G2 compound I-1 3.4 mg/kg tail vein injection): -0.83 g
Decrease in body weight ([1]; Day 7 vs Day 0, G3 compound I-1 1.7 mg/kg tail vein injection): -0.31 g
Body Weight, mean value [1, 7]: 26.15 g
Decrease rate (body weight) [1, 7]: −3.37%
Body Weight, mean value [1, 8]: 27.18 g
Decrease rate (body weight) [1, 8]: −1.18%
Decrease in body weight ([1]; Day 10 vs Day 0, G2 compound I-1 3.4 mg/kg tail vein injection): -0.85 g
Decrease in body weight ([1]; Day 10 vs Day 0, G3 compound I-1 1.7 mg/kg tail vein injection): -0.32 g
Body Weight, mean value [1, 9]: 26.59 g
Decrease rate (body weight) [1, 9]: −5.12%
Body Weight, mean value [1, 10]: 27.69 g
Decrease rate (body weight) [1, 10]: −3.10%
Decrease in body weight ([1]; Day 14 vs Day 0, G2 compound I-1 3.4 mg/kg tail vein injection): -1.30 g
Decrease in body weight ([1]; Day 14 vs Day 0, G3 compound I-1 1.7 mg/kg tail vein injection): -0.83 g
Body Weight, mean value [1, 11]: 26.34 g
Decrease rate (body weight) [1, 11]: −4.12%
Body Weight, mean value [1, 12]: 27.81 g
Decrease rate (body weight) [1, 12]: −3.54%
Decrease in body weight ([1]; Day 17 vs Day 0, G2 compound I-1 3.4 mg/kg tail vein injection): -1.04 g
Decrease in body weight ([1]; Day 17 vs Day 0, G3 compound I-1 1.7 mg/kg tail vein injection): -0.95 g
Body Weight, mean value [1, 13]: 26.84 g
Decrease rate (body weight) [1, 13]: −6.09%
Body Weight, mean value [1, 14]: 28.10 g
Decrease rate (body weight) [1, 14]: −4.61%
Decrease in body weight ([1]; Day 21 vs Day 0, G2 compound I-1 3.4 mg/kg tail vein injection): -1.54 g
Decrease in body weight ([1]; Day 21 vs Day 0, G3 compound I-1 1.7 mg/kg tail vein injection): -1.24 g
Body Weight, mean value [1, 15]: 26.58 g
Decrease rate (body weight) [1, 15]: −5.08%
Body Weight, mean value [1, 16]: 28.12 g
Decrease rate (body weight) [1, 16]: −4.68%
Decrease in body weight ([1]; Day 24 vs Day 0, G2 compound I-1 3.4 mg/kg tail vein injection): -1.29 g
Decrease in body weight ([1]; Day 24 vs Day 0, G3 compound I-1 1.7 mg/kg tail vein injection): -1.26 g
Body Weight, mean value [1, 17]: 26.96 g
Decrease rate (body weight) [1, 17]: −6.57%
Body Weight, mean value [1, 18]: 28.27 g
Decrease rate (body weight) [1, 18]: −5.26%
Decrease in body weight ([1]; Day 28 vs Day 0, G2 compound I-1 3.4 mg/kg tail vein injection): -1.66 g
Decrease in body weight ([1]; Day 28 vs Day 0, G3 compound I-1 1.7 mg/kg tail vein injection): -1.41 g
toxic and side effect ([1]; injection administration of compound I-1 (3.4 and 1.7 mg/kg), judged from body weight): does not result in obvious toxic and side effect
Mean Volume of Tumor ([2]; Day 0): 195.1545 mm^3
Mean Volume of Tumor ([2]; Day 3): 232.4297 mm^3
Mean Volume of Tumor ([2]; Day 7): 273.2138 mm^3
Mean Volume of Tumor ([2]; Day 10): 360.0897 mm^3
Mean Volume of Tumor ([2]; Day 14): 506.8288 mm^3
Mean Volume of Tumor ([2]; Day 17): 612.8810 mm^3
Mean Volume of Tumor ([2]; Day 21): 934.2806 mm^3
Mean Volume of Tumor ([2]; Day 24): 1089.1761 mm^3
Tumor Inhibition Rate ([2]; Day 28, by tumor weight): 68% and 68.29%
Mean Volume of Tumor ([2]; Day 28): 1354.8457 mm^3
Tumor Weight ± SD ([2]; Day 28): 0.8463 ± 0.1582 g
